# Laboratory results reported in patent publication US20080113926A1, “9A-Carbamoyl-Y-Aminopropyl- And 9A-Thiocabamoyl-Y-Aminopropyl-Azalides With Antimalarial Activity” (priority 2005, published 2008).
# Experiments:
# Type in all cases: cell-based
# [1] = test system: Plasmodium falciparum TM91C235; test: In vitro antimalarial [3H]-hypoxanthine incorporation serial dilution assay, TM91C235; conditions: P. falciparum TM91C235, parasites exposed for 72 hours; for IC50: Plasmodium falciparum
# [2] = test system: Plasmodium falciparum clone CDC/Sierra Leone I (D-6); test: In vitro antimalarial [3H]-hypoxanthine incorporation serial dilution assay, D6; conditions: P. falciparum D6, parasites exposed for 72 hours; for IC50: Plasmodium falciparum
# Source text: (§1) The in vitro screens for intrinsic antimalarial activity were based on modifications of the procedures described by Desjardins R E, Canfield C J, Haynes J D, Chulay J D. (Quantitative assessment of antimalarial activity in vitro by a semiautomated microdilution technique. Antimicrob Agents Chemother. 1979 December; 16(6):710-8), Chulay J D, Haynes J D, Diggs C L. (Plasmodium falciparum: Assessment of in vitro growth by [3H]hypoxanthine incorporation. Exp. Parasitol. 1983 55:138-146), and Milhous W K, Weatherly N F, Bowdre J H, Desjardins R E. (In vitro activities of and mechanisms of resistance to antifol antimalarial drugs. Antimicrob Agents Chemother. 1985 April; 27(4):525-30). The system was limited to the assessment of the intrinsic activity against the erythrocytic asexual life cycle (blood schizontocides). Two Plasmodium falciparum clones from CDC/Indochina III (W-2) and CDC/Sierra Leone I (D-6) (Oduola A M, Weatherly N F, Bowdre J H, Desjardins R E. Plasmodium falciparum: cloning by single-erythrocyte micromanipulation and heterogeneity in vitro. Exp Parasitol. 1988 66(1):86-95) were used for all assays. TM91C235, a multiple drug resistant isolate from Thailand, was used for the prescreening assay. W-2 is resistant to chloroquine, quinine, and pyrimethamine and susceptible to mefloquine. D-6 tends to be more resistant to mefloquine and susceptible to chloroquine, quinine, and pyrimethamine. All documents cited in this paragraph are incorporated by reference in their entirety.
# (§2) All parasites were maintained in continuous long term cultures in RPMI-1640 medium supplemented with 6% washed human A positive (A+) (erythrocytes, 25 mM Hepes, […], and 10% heat inactivated A+ human plasma or ALBUMAX® (lipid-rich bovine serum albumin; Invitrogen, Carlsbad, Calif.). All cultures and assays were conducted at 37° C. under an atmosphere of 5% CO2 and 5% O2, with a balance of N2.
# (§3) The prescreening assay uses TM91C235 diluted at a 0.4% parasitemia in a 1% hematocrit in folic acid free and p-aminobenzoic acid free media RPMI-1640 and ALBUMAX®. One mg of the compound is typically dissolved in 100 μl of dimethyl sulfoxide (DMSO). The compound is further diluted in culture medium (FF) with ALBUMAX® for the first initial starting concentration. The rest of the stock drug solution was kept at −70° C. The isolate was preexposed, in duplicate, at three concentrations (25,000 ng/ml, 2,500 ng/ml, and 25 ng/ml) of the test compound for 48 hr in a 96-well microtiter plate (MTP) using the BIOMEK® 2000 automated laboratory workstation. Each MTP contains chloroquine as control to assess the relative activity of the compound and to monitor the response of TM91C235.
# (§4) After the preincubation, [^3H]-hypoxanthine was added to each well of the MTP. (The assay relies on the incorporation of radiolabeled hypoxanthine by the parasites, which indicates reproduction, and inhibition of isotope incorporation was attributed to activity of known or candidate antimalarial drugs). After 72 hr of total incubation time, the MTP were frozen to lyse the erythrocytes and parasites. The parasite DNA was recovered by harvesting the lysate onto glass-fiber filter plates using a Packard FilterMate™ Cell Harvester. The radioactivity was counted on a Packard TopCount™ microplate scintillation counter. The results were recorded as counts per minutes (CPM) per well at each drug concentration divided by the arithmetic mean of the CPM from the three untreated infection parasite control wells.
# (§5) The serial dilution assay was conducted using the same assay conditions and stock solution of the compound used for the preliminary screen, described above. Both the D-6 and the W-2 clones were used. The compounds were diluted two-fold over 11 different concentration ranges with a starting concentration that was based on the preliminary screen. […]
# [3] = test system: Plasmodium falciparum clone CDC/Indochina III (W-2); test: In vitro antimalarial [3H]-hypoxanthine incorporation serial dilution assay, W2; conditions: P. falciparum W2, parasites exposed for 72 hours; for IC50: Plasmodium falciparum, W2, 72 h
# Source text: as §1, §2, §3, §4, §5
IC50 [1] [µg/mL],IC50 [2] [µg/mL],IC50 [3] [µg/mL],IC50 TM91C235 [1] [µg/mL],IC50 D6 [2] [µg/mL],IC50 W2 [3] [µg/mL],SMILES
0.0541,0.228,0.0768,,,,CC[C@H]1OC(=O)[C@H](C)[C@@H](O[C@H]2C[C@@](C)(OC)[C@@H](O)[C@H](C)O2)[C@H](C)[C@@H](O[C@@H]2O[C@H](C)C[C@H](N(C)C)[C@H]2O)[C@](C)(O)C[C@@H](C)CN(CCCNC(=S)N(CCC#N)CCCc2ccccc2)[C@H](C)[C@@H](O)[C@]1(C)O [Compound 4]
0.143,0.156,0.298,,,,CC[C@H]1OC(=O)[C@H](C)[C@@H](O[C@H]2C[C@@](C)(OC)[C@@H](O)[C@H](C)O2)[C@H](C)[C@@H](O[C@@H]2O[C@H](C)C[C@H](N(C)C)[C@H]2O)[C@](C)(O)C[C@@H](C)CN(CCCN(CCC#N)C(=O)Nc2ccc3ccccc3c2)[C@H](C)[C@@H](O)[C@]1(C)O [Compound 7]
0.297,0.954,0.172,,,,CC[C@H]1OC(=O)[C@H](C)[C@@H](O)[C@H](C)[C@@H](O[C@@H]2O[C@H](C)C[C@H](N(C)C)[C@H]2O)[C@](C)(O)C[C@@H](C)CN(CCCNC(=S)Nc2cccc3ccccc23)[C@H](C)[C@@H](O)[C@]1(C)O [Compound 29]
0.106,0.155,,,,,CC[C@H]1OC(=O)[C@H](C)[C@@H](O)[C@H](C)[C@@H](O[C@@H]2O[C@H](C)C[C@H](N(C)C)[C@H]2O)[C@](C)(O)C[C@@H](C)CN(CCCN(CCC#N)C(=S)NCCCc2ccccc2)[C@H](C)[C@@H](O)[C@]1(C)O [Compound 32]
0.312,0.716,0.467,,,,CC[C@H]1OC(=O)[C@H](C)[C@@H](O)[C@H](C)[C@@H](O[C@@H]2O[C@H](C)C[C@H](N(C)C)[C@H]2O)[C@](C)(O)C[C@@H](C)CN(CCCNC(=O)Nc2ccc3ccccc3c2)[C@H](C)[C@@H](O)[C@]1(C)O [Compound 27]
1.21,> 0.797,> 1.76,,,,CC[C@H]1OC(=O)[C@H](C)[C@@H](O)[C@H](C)[C@@H](O[C@@H]2O[C@H](C)C[C@H](N(C)C)[C@H]2O)[C@](C)(O)C[C@@H](C)CN(CCCNC(=S)NCc2ccccc2)[C@H](C)[C@@H](O)[C@]1(C)O [Compound 25]
,,,0.2719,0.4872,1.7881,CC[C@H]1OC(=O)[C@H](C)[C@@H](O[C@H]2C[C@@](C)(OC)[C@@H](O)[C@H](C)O2)[C@H](C)[C@@H](O[C@@H]2O[C@H](C)C[C@H](N(C)C)[C@H]2O)[C@](C)(O)C[C@@H](C)CN(CCCN(CCC#N)C(=O)Nc2cc(OC)c(OC)c(OC)c2)[C@H](C)[C@@H](O)[C@]1(C)O [Compound 24]
0.191,0.203,,,,,CC[C@H]1OC(=O)[C@H](C)[C@@H](O)[C@H](C)[C@@H](O[C@@H]2O[C@H](C)C[C@H](N(C)C)[C@H]2O)[C@](C)(O)C[C@@H](C)CN(CCCN(CCC#N)C(=O)Nc2ccc3ccccc3c2)[C@H](C)[C@@H](O)[C@]1(C)O [Compound 34]
0.161,0.276,0.217,,,,CC[C@H]1OC(=O)[C@H](C)[C@@H](O[C@H]2C[C@@](C)(OC)[C@@H](O)[C@H](C)O2)[C@H](C)[C@@H](O[C@@H]2O[C@H](C)C[C@H](N(C)C)[C@H]2O)[C@](C)(O)C[C@@H](C)CN(CCCN(CCC#N)C(=O)Nc2ccc(Cl)cc2Cl)[C@H](C)[C@@H](O)[C@]1(C)O [Compound 11]
1.06,> 0.797,> 1.76,,,,CC[C@H]1OC(=O)[C@H](C)[C@@H](O[C@H]2C[C@@](C)(OC)[C@@H](O)[C@H](C)O2)[C@H](C)[C@@H](O[C@@H]2O[C@H](C)C[C@H](N(C)C)[C@H]2O)[C@](C)(O)C[C@@H](C)CN(CCCNC(=O)NS(=O)(=O)c2ccc(C)cc2)[C@H](C)[C@@H](O)[C@]1(C)O [Compound 20]
0.215,0.232,0.18,,,,CC[C@H]1OC(=O)[C@H](C)[C@@H](O[C@H]2C[C@@](C)(OC)[C@@H](O)[C@H](C)O2)[C@H](C)[C@@H](O[C@@H]2O[C@H](C)C[C@H](N(C)C)[C@H]2O)[C@](C)(O)C[C@@H](C)CN(CCCNC(=S)NCCc2ccccc2)[C@H](C)[C@@H](O)[C@]1(C)O [Compound 14]
1.53,> 0.797,> 1.76,,,,CC[C@H]1OC(=O)[C@H](C)[C@@H](O[C@H]2C[C@@](C)(OC)[C@@H](O)[C@H](C)O2)[C@H](C)[C@@H](O[C@@H]2O[C@H](C)C[C@H](N(C)C)[C@H]2O)[C@](C)(O)C[C@@H](C)CN(CCCNC(=O)NS(=O)(=O)c2ccccc2Cl)[C@H](C)[C@@H](O)[C@]1(C)O [Compound 22]
0.255,0.864,0.41,,,,CC[C@H]1OC(=O)[C@H](C)[C@@H](O)[C@H](C)[C@@H](O[C@@H]2O[C@H](C)C[C@H](N(C)C)[C@H]2O)[C@](C)(O)C[C@@H](C)CN(CCCNC(=S)NCCCc2ccccc2)[C@H](C)[C@@H](O)[C@]1(C)O [Compound 28]
0.157,0.192,,,,,CC[C@H]1OC(=O)[C@H](C)[C@@H](O)[C@H](C)[C@@H](O[C@@H]2O[C@H](C)C[C@H](N(C)C)[C@H]2O)[C@](C)(O)C[C@@H](C)CN(CCCN(CCC#N)C(=S)NCCc2ccccc2)[C@H](C)[C@@H](O)[C@]1(C)O [Compound 31]
0.118,0.292,0.246,,,,CC[C@H]1OC(=O)[C@H](C)[C@@H](O[C@H]2C[C@@](C)(OC)[C@@H](O)[C@H](C)O2)[C@H](C)[C@@H](O[C@@H]2O[C@H](C)C[C@H](N(C)C)[C@H]2O)[C@](C)(O)C[C@@H](C)CN(CCCNC(=O)NC(C)c2cccc3ccccc23)[C@H](C)[C@@H](O)[C@]1(C)O (some centres unmarked) [Compound 6]
0.277,0.962,,,,,CC[C@H]1OC(=O)[C@H](C)[C@@H](O)[C@H](C)[C@@H](O[C@@H]2O[C@H](C)C[C@H](N(C)C)[C@H]2O)[C@](C)(O)C[C@@H](C)CN(CCCN(CCC#N)C(=O)Nc2ccc(Cl)cc2Cl)[C@H](C)[C@@H](O)[C@]1(C)O [Compound 33]
0.39,> 0.797,0.361,,,,CC[C@H]1OC(=O)[C@H](C)[C@@H](O)[C@H](C)[C@@H](O[C@@H]2O[C@H](C)C[C@H](N(C)C)[C@H]2O)[C@](C)(O)C[C@@H](C)CN(CCCN(CCC#N)C(=O)NC(C)c2cccc3ccccc23)[C@H](C)[C@@H](O)[C@]1(C)O (some centres unmarked) [Compound 26]
0.117,0.176,0.112,,,,CC[C@H]1OC(=O)[C@H](C)[C@@H](O[C@H]2C[C@@](C)(OC)[C@@H](O)[C@H](C)O2)[C@H](C)[C@@H](O[C@@H]2O[C@H](C)C[C@H](N(C)C)[C@H]2O)[C@](C)(O)C[C@@H](C)CN(CCCNC(=S)NCCCc2ccccc2)[C@H](C)[C@@H](O)[C@]1(C)O [Compound 3]
0.272,0.487,> 1.76,,,,CC[C@H]1OC(=O)[C@H](C)[C@@H](O[C@H]2C[C@@](C)(OC)[C@@H](O)[C@H](C)O2)[C@H](C)[C@@H](O[C@@H]2O[C@H](C)C[C@H](N(C)C)[C@H]2O)[C@](C)(O)C[C@@H](C)CN(CCCN(CCC#N)C(=O)Nc2cc(OC)c(OC)c(OC)c2)[C@H](C)[C@@H](O)[C@]1(C)O [Compound 16]
> 1.62,0.427,1,,,,CC[C@H]1OC(=O)[C@H](C)[C@@H](O[C@H]2C[C@@](C)(OC)[C@@H](O)[C@H](C)O2)[C@H](C)[C@@H](O[C@@H]2O[C@H](C)C[C@H](N(C)C)[C@H]2O)[C@](C)(O)C[C@@H](C)CN(CCCNC(=O)NS(=O)(=O)c2ccccc2C)[C@H](C)[C@@H](O)[C@]1(C)O [Compound 21]
